From patent US20220401452A1, “USE OF INHIBITORS OF ENHANCER OF ZESTE HOMOLOG 2” (The Board Of Regents of The University of Texas System, priority 2019, published 2022)

Key:
[1] = system: C4-2B, LAPC4-CR and LNCaP-AI cells; assay: RT-qPCR of selected genes in C4-2B, LAPC4-CR and LNCaP-AI; format: cell-based, human; conditions: 5 μM, 72 hrs
Excerpt: The expression of these genes was examined in three other EZH2i-sensitive CRPC cell lines: C4-2B, LAPC4-CR and LNCaP-AI. FIG. 2D is a heat map of quantitative real-time RT-qPCR results showing changes in mRNA levels of selected gene in three prostate cancer cell lines (C4-2B, LAPC4-CR, and LNCaP-AI). […] EZH2-activated genes and EZH2-repressed genes are grouped together. […] Numbers, triplicates of samples from control or treatment group.
RNA isolation and RT-qPCR. RNA was extracted and purified using the TRIzol Reagent combined with RNeasy Mini Kit (Qiagen) according to manufacturer's protocols. 2 μg of total RNAs were then used for cDNA synthesis using High Capacity cDNA Reverse Transcription Kit (Applied Biosystems). Real-time quantitative RT-PCR was performed, and gene expression was calculated as described previously, using the formula 2-ΔΔCt relative to the level of GAPDH as the internal control.

DU145 cells [2] = assay: Growth curve of DU145 cells; format: cell-based, human; conditions: FIG. 9A
Protocol: Genetic inhibition of EZH2 suppressed growth of CRPC cells better than that of androgen-dependent prostate cancer cells. As EZH2 is a druggable enzyme with available small-molecule inhibitors, the efficacy of EZH2-targeting drugs was assessed in prostate cancer cells. […] Cells were grouped based on the basic characteristics. ADPC is androgen-dependent prostate cancer, and CRPC is castration-resistant prostate cancer. Concentrations as low as 500 nM of the EZH2 inhibitors (EZH2i) greatly retarded the growth of castration-resistant abl cells. […] Relatively higher doses of EZH2i were required to suppress the androgen-dependent LNCaP cells. […] This was consistent with a previous report that neither PC3 nor DU145 requires EZH2 for continued growth.

abl cells [3] = assay: Gene expression by RNA-Seq in abl cells; format: cell-based, human; conditions: 5 μM, 72 hrs
Protocol: (§1) Blue bars represent the percentage of genes in each specific functional category. The red line represents values of the false discovery rate (FDR) for the particular GO term. […] Two analyses were carried out to rule out the possible off-targeted effect of EZH2i on gene regulation. First, transcriptional profiles were compared in abl being treated with either EZH2i or in which EZH2 had been silenced using RNA interference (RNAi). Pharmacologic and genetic inhibition of EZH2 shared highly similar gene expression patterns.
(§2) Analysis of EZH2 Inhibitor Mediated Gene Expression by RNA-Seq. […] RNA-seq library was prepared using Illumina True-seq RNA sample preparation kit and sequenced to 50 bp using Illumina Hi-seq platform. RNA-seq data was mapped to human genome (hg19) using TopHat version 2.0.6. […] Differentially expressed genes were first filtered using LFC>0.5 or <−0.5, and then top 200 genes were selected through ranking by their p-values. The authentic target genes of EZH2 in abl cells were defined as those showing similar expression changes upon either EZH2 silencing or inhibitor treatment.

DU145 cells [4] = assay: Gene expression by RNA-Seq in DU145 cells; format: cell-based, human; conditions: 5 μM, 72 hrs
Protocol: as §1, §2

[5] = system: H3K27 methylation in prostate cell lines; assay: Western blot of H3K27 methylation levels in prostate cell lines; format: cell-based, human; conditions: all tested prostate cell lines; 1 or 5 μM
Excerpt: In view of the canonical function of EZH2 in catalyzing H3K27me3, the mechanisms of how repressive chromatin mark contribute to the growth and gene inhibitory effects of EZH2i were investigated. […] Discrepancies between EZH2i-induced H3K27me3 reduction and cell insensitivity to EZH2i were also reported in lymphoma cells.

[6] = system: 668 cancer cells lines of various types; conditions: CTRP data, cited from earlier work
DU145 cells [7] = assay: Alkaline comet assay after ionizing radiation in DU145 cells; format: cell-based, human; conditions: 5 μM pretreatment 7 days, recovery 4 hrs
Protocol: (§3) EZH2i can be administered to sensitize CRPC cells to DNA damage repair (DDR) agents. To validate this, abl, LNCaP and DU145 cells were exposed to increasing doses of ionizing radiation (IR). […] FIG. 6A is a graphical representation of the alkaline comet assays in abl cells. Prostate cancer cells were pretreated with vehicle (DMSO) or 5 μM GSK126 (GSK) for 7 days, and then exposed to increasing dosages of ionizing radiation (IR) followed by recovery for 4 hrs. FIG. 6B is a set of photographic images of each IR dosage corresponding to the dosages in FIG. 6A. FIG. 6C is a graphical representation of the alkaline comet assays in LNCaP cells. […]
(§4) FIG. 15A is a graphical representation of the alkaline comet assay results in abl cells after pretreatment with vehicle (DMSO) or 5 μM GSK126 (GSK) for 7 days and then being exposed to 5 gray (Gy) ionizing radiation (IR) followed by recovery at indicated time points (Quantification of the results using “Olive Tail Moment” parameter). […] FIG. 15C is a graphical representation of the alkaline comet assay results in LNCaP cells after pretreatment with vehicle (DMSO) or 5 μM GSK126 (GSK) for 7 days and then being exposed to 5 gray (Gy) ionizing radiation (IR) followed by recovery at indicated time points (Quantification of the results using “Olive Tail Moment” parameter). […]

CWR22Rv1 xenografts = assay: Test of EZH2 inhibitors in CWR22Rv1 xenograft mouse model; format: in vivo, castrated nude mice
Protocol: FIG. 1F is a growth curve of xenograft tumors in castrated nude mice injected with CWR22Rv1 cells receiving vehicle (Veh) or GSK126, at the indicated doses.
Test of EZH2 Inhibitors in Xenograft Mouse Model. Male nude mice (Taconic) were castrated after 3 days of accommodation. CWR22Rv1 xenografts were established in the flanks of mice by injecting ˜2 million cells in 50% Matrigel (BD Biosciences). […] Tumors were measured 3 times every week and harvested after 3 weeks. Frozen samples were subjected to RT-qPCR and immunoblotting to study the expression of selected genes. All animal protocols were approved by the Beth Israel Deaconess Institutional Animal Care and Use Committee, and the experiments were performed in accordance with institutional and national guidelines.

abl cells [8] = assay: Alkaline comet assay after ionizing radiation in abl cells; format: cell-based, human; conditions: 5 μM pretreatment 7 days
Protocol: as §3, §4

LNCaP cells = assay: Alkaline comet assay after ionizing radiation in LNCaP cells; format: cell-based, human; conditions: 5 μM pretreatment 7 days, recovery 4 hrs
Protocol: as §3, §4

Row | SMILES | expression of EZH2-repressed genes [1] | inhibitory effect on growth of AR-null DU145 (DU145 cells [2]) | gene expression pattern in abl cells (abl cells [3]) | gene expression pattern in EZH2i-insensitive DU145 cells (DU145 cells [4]) | total H3K27 di- and tri-methylation levels [5] | potency by EZH2 mutation status ([6]; GOF vs LOF p=0.2705, GOF vs None p=1.000) | sensitivity of cell lines by expression of DNA repair genes ([6]; top 25% highest vs bottom 25% lowest expression) | difference in sensitivity to ionizing radiation (comet assay) (DU145 cells [7]) | xenograft tumor growth (CWR22Rv1 xenografts; CWR22Rv1 subcutaneous xenografts, castrated mice, daily injection, 21 days of treatment) | mRNA and protein levels of EZH2-activated genes in xenograft tumor tissues (CWR22Rv1 xenografts; CWR22Rv1 xenografts) | DNA damage repair after 5 Gy IR (Olive Tail Moment over recovery time) (abl cells [8]) | sensitivity to increasing doses of ionizing radiation (comet assay) (abl cells [8]; recovery 4 hrs) | difference in sensitivity to ionizing radiation (comet assay) (LNCaP cells)
1 | CCN(c1cc(-c2ccc(CN3CCOCC3)cc2)cc(C(=O)NCc2c(C)cc(C)[nH]c2=O)c1C)C1CCOCC1 [EPZ-6438] | upregulated EZH2-repressed genes to some extent | minimal | a large number of genes were significantly downregulated | largely de-repressed genes | reduced total H3K27 di- and tri-methylation levels in a dose-dependent manner |  |  |  |  |  |  |  | 
2 | C[C@H]1CN([C@@H](C)CO)S(=O)(=O)c2ccc(C#CCC3CCCC3)cc2O[C@@H]1CN(C)Cc1ccc(C(=O)O)cc1 [BRD] |  |  |  |  |  | does not show higher potency | much more susceptible |  |  |  |  |  | 
3 | CC[C@H](C)n1cc(C)c2c(C(=O)NCc3c(C)cc(C)[nH]c3=O)cc(-c3ccc(N4CCNCC4)nc3)cc21 [GSK126] | upregulated EZH2-repressed genes to some extent | minimal | a large number of genes were significantly downregulated | largely de-repressed genes | reduced total H3K27 di- and tri-methylation levels in a dose-dependent manner |  |  | non-existent | significantly retarded tumor growth | consistent decrease | drastically delayed DNA damage repair | became much more sensitive to IR | very minor
